Data taken from US20240174690A1, “ANNULATED 2-AMINO-3-CYANO THIOPHENES AND DERIVATIVES FOR THE TREATMENT OF CANCER” (BOEHRINGER INGELHEIM INTERNATIONAL GMBH, priority 2021, published 2024).

Key:
A375 cells = assay: A375 CTG proliferation assay (120 h) (melanoma, wt, B-Raf mutant, negative control); type: cell-based; settings: Homo sapiens, A-375, CTG 120 h
Method: A375 CTG Proliferation Assay (120 h) (Melanoma, Wt, B-Raf Mutant, Negative Control)
A375 cells (ATCC CRL-1619) are dispensed into 384-well plates, flat and clear bottom (Greiner, PNr. 781091) at a density of 300 cells per well in 60 μL DMEM (Sigma 06429)+10% Fetal Calf Serum (HyClone, PNr.: SH30084.03) and incubated at 37° C. in a CO2 incubator overnight. The next day, compounds (10 mM stock in DMSO) are added at logarithmic dose series using the HP Digital Dispenser D300 (Tecan), including DMSO controls. Plates are incubated for 120 h, and cell viability is measured using CellTiter-Glo luminescent cell viability reagent (Promega product code G7570). Viability (stated as percent of control) is defined as relative luminescence units RLU of each well divided by the RLU of cells in DMSO controls. IC50 values are determined from viability measurements by non-linear regression using a four-parameter model.

KRAS (WT)::SOS1 = KRAS (WT)::SOS1 (Homo sapiens (Human), UniProt P01116, C118S); assay: KRAS::SOS1 AlphaScreen binding assay, KRAS WT
Sequence of KRAS (WT)::SOS1 (P01116 other isoform, or with tags, fused parts or gaps C118S): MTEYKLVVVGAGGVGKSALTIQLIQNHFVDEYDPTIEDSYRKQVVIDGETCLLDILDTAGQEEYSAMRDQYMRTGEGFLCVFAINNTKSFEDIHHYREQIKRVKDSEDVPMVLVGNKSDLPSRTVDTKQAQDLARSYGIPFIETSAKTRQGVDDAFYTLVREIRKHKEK
Text: (§1) This assay can be used to examine the potency with which compounds according to the invention binding to (mutated) KRAS inhibit the protein-protein interaction between SOS1 and (mutated) KRAS e.g., KRAS WT, KRAS G12C, KRAS G12D, KRAS G12V, KRAS G13D. […] Low IC50 values in this assay setting are indicative of strong inhibition of protein-protein interaction between SOS1 and KRAS:
(§2) These assays measure the inhibitory effect of compounds on KRAS mutant protein-protein interactions using the Alpha Screen technology by Perkin Elmer.
(§3) The following (mutant) enzyme forms of KRAS and interacting proteins are used in these assays at the given concentrations: • KRAS (G12D) 1-169, N-terminal 6His-tag, C-terminal avi-tag (Xtal BioStructures, Inc.); final assay concentration 10 nM and SOS1 564-1049, N-terminal 229 GST-tag, TEV cleavage site (Viva Biotech Ltd); final assay concentration 5 nM; • KRAS (G12C) 1-169, N-terminal 6His-tag for purification, cleaved off, C-terminal avi-tag, biotinylated, mutations: C51S, C80L, C118S (in house); final assay concentration 7.5 nM and SOS1 564-1049, N-terminal 229 GST-tag, TEV cleavage site (Viva Biotech Ltd); final assay concentration 5 nM; • KRAS (G12V) 1-169, N-terminal 6His-tag for purification, cleaved off, C-terminal avi-tag, biotinylated, TEV cleavage site, mutation: C118S, GDP loaded (in house); final assay concentration 10 nM and SOS1 564-1049, N-terminal 229 GST-tag, TEV cleavage site (Viva Biotech Ltd); final assay concentration 10 nM; • KRAS (G13D) 1-169, N-terminal 6His-tag for purification, cleaved off, C-terminal avi-tag, biotinylated, TEV cleavage site, mutation: C118S, GDP loaded (in house); final assay concentration 10 nM and SOS1 564-1049, N-terminal 229 GST-tag, TEV cleavage site (Viva Biotech Ltd); final assay concentration 10 nM; • KRAS (WT) 1-169, N-terminal 6His-tag for purification, cleaved off, C-terminal avi-tag, biotinylated, TEV cleavage site, mutation: C118S, GDP loaded (in house); final assay concentration 10 nM and SOS1 564-1049, N-terminal 229 GST-tag, TEV cleavage site (Viva Biotech Ltd); final assay concentration 10 nM.
(§4) Test compounds dissolved in DMSO are dispensed onto assay plates (Proxiplate 384 PLUS, white, PerkinElmer; 6008289) using an Access Labcyte Workstation with the Labcyte Echo 55×. For the chosen highest assay concentration of 100 μM, 150 nL of compound solution are transferred from a 10 mM DMSO compound stock solution. A series of eleven fivefold dilutions per compound are transferred to the assay plate, compound dilutions are tested in duplicates. DMSO are added as backfill to a total volume of 150 nL.
(§5) The assays run on a fully automated robotic system in a darkened room below 100 Lux. To 150 nl of compound dilution 10 μl of a mix including KRAS mutant protein, SOS1 (final assay concentrations see above) and GDP nucleotide (Sigma G7127; final assay concentration 10 μM) in assay buffer (1×PBS, 0.1% BSA, 0.05% Tween 20) are added into columns 1-24.
(§6) After 30 minutes incubation time 5 μl of Alpha Screen bead mix in assay buffer are added into columns 1-23. Bead mix consists of AlphaLISA Glutathione Acceptor Beads (PerkinElmer, Cat No AL109) and AlphaScreen Streptavidin Donor Beads (PerkinElmer Cat No 6760002) in assay buffer at a final assay concentration of 10 μg/ml each.
(§7) Plates are kept at room temperature in a darkened incubator. After an additional 60 minutes incubation time the signal is measured in a PerkinElmer Envision HTS Multilabel Reader using the AlphaScreen specs from PerkinElmer.
(§8) Each plate contains up to 16 wells of a negative control depending on the dilution procedure (platewise or serial) (DMSO instead of test compound; with KRAS mutant::SOS1 GDP mix and bead mix; column 23) and 16 wells of a positive control (DMSO instead of test compound; with KRAS mutant::SOS1 GDP mix w/o bead mix; column 24).
(§9) As internal control known inhibitors of KRAS mutant::SOS1 interaction can be measured on each compound plate. […]

KRAS (G12V)::SOS1 = KRAS (G12V)::SOS1 (Homo sapiens (Human), UniProt P01116, C118S/G12V); assay: KRAS::SOS1 AlphaScreen binding assay, KRAS G12V
Sequence of KRAS (G12V)::SOS1 (P01116 other isoform, or with tags, fused parts or gaps G12V/C118S): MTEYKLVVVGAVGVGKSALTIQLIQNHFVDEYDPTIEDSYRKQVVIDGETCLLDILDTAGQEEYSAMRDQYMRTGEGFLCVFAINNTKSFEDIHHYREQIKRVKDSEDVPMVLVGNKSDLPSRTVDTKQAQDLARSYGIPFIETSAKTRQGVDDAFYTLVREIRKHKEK
Text: as §1, §2, §3, §4, §5, §6, §7, §8, §9

KRAS (G13D)::SOS1 = KRAS (G13D)::SOS1 (Homo sapiens (Human), UniProt P01116, C118S/G13D); assay: KRAS::SOS1 AlphaScreen binding assay, KRAS G13D
Sequence of KRAS (G13D)::SOS1 (P01116 other isoform, or with tags, fused parts or gaps G13D/C118S): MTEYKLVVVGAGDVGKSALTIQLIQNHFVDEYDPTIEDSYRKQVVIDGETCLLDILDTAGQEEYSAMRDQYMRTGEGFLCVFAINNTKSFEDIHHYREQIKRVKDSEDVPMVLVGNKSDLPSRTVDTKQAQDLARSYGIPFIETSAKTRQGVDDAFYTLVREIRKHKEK
Text: as §1, §2, §3, §4, §5, §6, §7, §8, §9

Structure (SMILES)	IC50 (A375 cells) [nM]	IC50 (KRAS (WT)::SOS1) [nM]	IC50 (KRAS (G12V)::SOS1) [nM]	IC50 (KRAS (G13D)::SOS1) [nM]
C[C@H](Oc1cc(-n2cc(-c3cncs3)nn2)nc(-c2noc3c2CCC[C@@]32CCCc3sc(N)c(C#N)c32)n1)[C@@H]1CCCN1C [II-125]	324	9		
C[C@H](Oc1cc(-n2ccc(-c3cnccn3)n2)nc(-c2noc3c2CCC[C@@]32CCCc3sc(N)c(C#N)c32)n1)[C@@H]1CCCN1C [II-130]	1310	5	2	
C[C@H](Oc1cc(-c2cccc(C(N)=O)c2)nc(-c2noc3c2CCC[C@@]32CCCc3sc(N)c(C#N)c32)n1)[C@@H]1CCCN1C [II-133]	1380	8	2	
C[C@H](Oc1cc(-n2cc3c(n2)CCN(C)C3)nc(-c2noc3c2CCC[C@@]32CCCc3sc(N)c(C#N)c32)n1)[C@@H]1CCCN1C [II-141]		3		
C[C@H](Oc1cc(N2CCOC2=O)nc(-c2noc3c2CCC[C@@]32CCCc3sc(N)c(C#N)c32)n1)[C@@H]1CCCN1C [II-143]	> 3000			
C[C@H](Oc1cc(N2CCN(C)C3(COC3)C2)nc(-c2noc3c2CCC[C@@]32CCCc3sc(N)c(C#N)c32)n1)[C@@H]1C[C@@H](F)CN1C [II-148]		5	3	
C[C@H](Oc1cc(N2CCN(C)C3(CC3)C2)nc(-c2noc3c2CCC[C@@]32CCCc3sc(N)c(C#N)c32)n1)[C@@H]1C[C@@H](F)CN1C [II-149]		12		
C[C@H](Oc1cc(N2CCNC3(COC3)C2)nc(-c2noc3c2CCC[C@@]32CCCc3sc(N)c(C#N)c32)n1)[C@@H]1C[C@@H](F)CN1C [II-150]		3		
C[C@H](Oc1cc(N2CCN(C)C3(CCOC3)C2)nc(-c2noc3c2CCC[C@@]32CCCc3sc(N)c(C#N)c32)n1)[C@@H]1C[C@@H](F)CN1C (stereo partly shown) [II-151]		8		
CO[C@@H]1C[C@@H]([C@H](C)Oc2cc(N3CCN(C)C4(CC4)C3)nc(-c3noc4c3CCC[C@@]43CCCc4sc(N)c(C#N)c43)n2)N(C)C1 [II-152]		14		
C[C@H](Oc1nc(-c2noc3c2CCC[C@@]32CCCc3sc(N)c(C#N)c32)nc(N2CCNC3(CC3)C2)c1F)[C@@H]1C[C@@H](F)CN1C [II-155]		4		
C[C@H](Oc1nc(-c2noc3c2CCC[C@@]32CCCc3sc(N)c(C#N)c32)nc(N2CCNC3(CC3)C2)c1Cl)[C@@H]1C[C@@H](F)CN1C [II-156]		6		
C[C@H](Oc1nc(-c2noc3c2CCC[C@@]32CCCc3sc(N)c(C#N)c32)nc(N2C[C@H](C)NC3(CC3)C2)c1F)[C@@H]1C[C@@H](F)CN1C [II-157]		5		
C[C@@H]1CN(c2nc(-c3noc4c3CCC[C@@]43CCCc4sc(N)c(C#N)c43)nc(O[C@@H](C)[C@@H]3C[C@@H](F)CN3C)c2F)CC2(CC2)N1 [II-158]		4		
C[C@H](Oc1cc(N2CCN[C@@H](C)C2)nc(-c2noc3c2CCC[C@@]32CCCc3sc(N)c(C#N)c32)n1)[C@@H]1CCCN1C [II-162]		8		
C[C@H](Oc1cc(C2=CCNCC2)nc(-c2noc3c2CCC[C@@]32CCCc3sc(N)c(C#N)c32)n1)[C@@H]1CCCN1C [II-164]		8		
C[C@H](Oc1cc(N2CCNC3(CC3)C2)nc(-c2noc3c2CCC[C@@]32CCCc3sc(N)c(C#N)c32)n1)[C@@H]1C[C@@H](F)CN1C [II-165]		5	15	48
C[C@H](Oc1cc(-n2cc3c(n2)CNC3)nc(-c2noc3c2CCC[C@@]32CCCc3sc(N)c(C#N)c32)n1)[C@@H]1CCCN1C [II-168]		3		
C[C@H](Oc1cc(N2CCN(C)C3(CC3)C2)nc(-c2noc3c2CCC[C@@]32CCCc3sc(N)c(C#N)c32)n1)[C@@H]1CCCN1C [II-171]		7	50	64
C[C@H](Oc1cc(-n2cc3c(n2)CN(C)C3)nc(-c2noc3c2CCC[C@@]32CCCc3sc(N)c(C#N)c32)n1)[C@@H]1CCCN1C [II-174]		4		
C[C@H](Oc1nc(-c2noc3c2CCC[C@@]32CCCc3sc(N)c(C#N)c32)nc(N2CCN(C)C3(CC3)C2)c1Cl)[C@@H]1C[C@@H](F)CN1C [II-176]		31		
CC(C)NC(=O)Cc1ccn(-c2cc(O[C@@H](C)[C@@H]3CCCN3C)nc(-c3noc4c3CCC[C@@]43CCCc4sc(N)c(C#N)c43)n2)n1 [II-182]				8
CO[C@H]1CCN(C)[C@@H]1[C@H](C)Oc1cc(N2CCNC3(CC3)C2)nc(-c2noc3c2CCC[C@@]32CCCc3sc(N)c(C#N)c32)n1 [II-184]			2	
C[C@H](Oc1cc(-n2ccc(C3(O)COC3)n2)nc(-c2noc3c2CCC[C@@]32CCCc3sc(N)c(C#N)c32)n1)[C@@H]1CCCN1C [II-189]		4	3	
C[C@H](Oc1cc(-n2ccc(C(=O)N[C@@H]3CCOC3)n2)nc(-c2noc3c2CCC[C@@]32CCCc3sc(N)c(C#N)c32)n1)[C@@H]1CCCN1C [II-192]		5	1	7
C[C@H](Oc1cc(-n2ccc(C(=O)N[C@H]3CCOC3)n2)nc(-c2noc3c2CCC[C@@]32CCCc3sc(N)c(C#N)c32)n1)[C@@H]1CCCN1C [II-193]		6	2	9
COCCNC(=O)c1ccn(-c2cc(O[C@@H](C)[C@@H]3CCCN3C)nc(-c3noc4c3CCC[C@@]43CCCc4sc(N)c(C#N)c43)n2)n1 [II-195]		3	1	7
CO[C@H]1CCN(C)[C@@H]1[C@H](C)Oc1cc(-n2ccc(C(=O)N[C@@H](C)c3ccccn3)n2)nc(-c2noc3c2CCC[C@@]32CCCc3sc(N)c(C#N)c32)n1 [II-196]		6	2	
CO[C@H]1CCN(C)[C@@H]1[C@H](C)Oc1cc(-n2ccc(C(N)=O)n2)nc(-c2noc3c2CCC[C@@]32CCCc3sc(N)c(C#N)c32)n1 [II-201]				27
C[C@H](Oc1cc(-n2ccc(-c3cn(C4CCOCC4)nn3)n2)nc(-c2noc3c2CCC[C@@]32CCCc3sc(N)c(C#N)c32)n1)[C@@H]1CCCN1C [II-210]		7	2	
